Consider seven compounds from article PMC11187190, “Structural insights into GABAA receptor potentiation by Quaalude” (Nature Communications, 2024).

Assay [1] deals with α1M236Wβ2γ2 GABAA receptor. The conditions noted are these: α1M236W, cited from earlier work.
The test system of assay [2] is α1β2M286Aγ2 GABAA receptor. The conditions noted are these: β2M286A; cited from earlier work.
For assay [3], the system named is α1β2M286Wγ2 GABAA receptor. The conditions noted are these: β2M286W, cited from earlier work.
Assay [4] has as its system α1β2N265Mγ2 GABAA receptor. As to conditions: β2N265M, cited from earlier work.
The test system of assay [5] is α1M236Aβ2γ2 GABAA receptor. The conditions noted are these: α1M236A; cited from earlier work.
In assay [6] the test system is α1β2γ2 GABAA receptor. The conditions noted are these: cited from earlier work.
Assay [7] deals with β2N265M mutant α1β2γ2 GABAA receptor. As to the kind of experiment: Whole-cell patch-clamp electrophysiology, TMD site mutant incl. diazepam competition. The assay is classed as cell-based. The conditions noted are these: for Effect on potentiation by diazepam (competition assay): diazepam 1 µM, methaqualone 100 µM. On the procedure:
(§1) Whole-cell voltage-clamp recordings were collected on the adherent HEK293S GnTI^− that were transiently transfected with the tri-cistronic pEZT construct used for structural analyses, as well as with GFP protein in pEZT for selection. The amount of plasmids used for transfection was 0.2–0.6 μg, and transfection was performed according to Lipofectamine2000 manufacturer’s protocol. The protein was expressed for 1–3 days at 30 °C. On the day of recording, cells were plated onto a 35 mm dish and washed with bath solution (140 mM NaCl, 2.4 mM KCl, 4 mM MgCl2, 4 mM CaCl2, 10 mM HEPES pH 7.3, and 10 mM glucose). Borosilicate pipettes were pulled and polished to an initial resistance of 2–4 MΩ. Pipettes were filled with the pipette solution (100 mM CsCl, 30 mM CsF, 10 mM NaCl, 10 mM EGTA, and 20 mM HEPES pH 7.3). Cells were clamped at −75 mV. The recordings were made using an Axopatch 200B amplifier, sampled at 5 kHz, and low pass filtered at 2 kHz using Digidata 1440 A (Molecular Devices), and analyzed with pClamp 10 software (Molecular Devices). Ligand solutions were prepared in a bath solution. A gravity-driven RSC-200 rapid solution changer (Bio-Logic) was used for solution exchange.
Statistical analysis in Fig. 3 and Fig. 4 was performed using GraphPad Prism 9.2.0 software (GraphPad Software, Inc., La Jolla, CA). Data are expressed as means ± standard deviation of at least three recordings from independent cells. The two-tailed Welch’s t-test was used. A p-value of ≤0.05 was considered statistically significant.

Assay [8] relates to β1-containing GABAA receptors. The conditions noted are these: cited from earlier work.
The next assay relates to βM286W GABAA receptor. The conditions noted are these: cited from earlier work.
For a further assay, the system named is β2/3N265M GABAA receptor. The conditions noted are these: cited from earlier work.
Assay [9] concerns α6β1S265Nδ GABAA receptor. The conditions noted are these: β1S265N in α6β1δ, cited from earlier work.
Assay [10] has as its target T1, α1Y210A/γ2F77A mutant α1β2γ2 GABAA receptor (Homo sapiens, UniProt P14867+P18507+P47870, DEL344-414/DEL362-381/DEL386-444/F116A/F383Q/G341Q/I446A/K384P/R340S/S415R/S417A/V416A/Y237A/Y342P).
T1 construct: twin-strep tag (N); expressed in transfected cells; host or cells: HEK293S GnTI- (text: HEK cells)
T1 sequence (P14867 with tags, fused parts or gaps Y237A/R340S/G341Q/Y342P/DEL344-414/S415R/V416A/S417A): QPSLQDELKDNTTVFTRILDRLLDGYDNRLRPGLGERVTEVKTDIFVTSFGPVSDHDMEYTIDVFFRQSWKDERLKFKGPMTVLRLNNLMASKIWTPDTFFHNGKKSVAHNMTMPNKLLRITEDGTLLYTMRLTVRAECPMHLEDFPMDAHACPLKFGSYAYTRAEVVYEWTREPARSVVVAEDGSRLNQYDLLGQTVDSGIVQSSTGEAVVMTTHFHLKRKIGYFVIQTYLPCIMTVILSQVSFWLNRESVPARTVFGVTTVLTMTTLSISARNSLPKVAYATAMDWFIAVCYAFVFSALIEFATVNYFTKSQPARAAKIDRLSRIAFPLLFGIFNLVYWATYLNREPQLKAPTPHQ
T1 sequence (P47870 with tags, fused parts or gaps): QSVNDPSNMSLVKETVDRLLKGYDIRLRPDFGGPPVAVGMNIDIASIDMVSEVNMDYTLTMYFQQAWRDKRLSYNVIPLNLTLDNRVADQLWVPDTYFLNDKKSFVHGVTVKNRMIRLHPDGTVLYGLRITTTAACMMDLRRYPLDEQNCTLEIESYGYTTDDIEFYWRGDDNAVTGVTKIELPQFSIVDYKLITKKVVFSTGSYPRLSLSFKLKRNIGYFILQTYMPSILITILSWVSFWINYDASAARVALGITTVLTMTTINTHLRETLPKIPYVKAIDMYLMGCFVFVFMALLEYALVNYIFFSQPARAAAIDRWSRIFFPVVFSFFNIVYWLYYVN
T1 sequence (P18507 with tags, fused parts or gaps F116A/DEL362-381/F383Q/K384P/DEL386-444/I446A): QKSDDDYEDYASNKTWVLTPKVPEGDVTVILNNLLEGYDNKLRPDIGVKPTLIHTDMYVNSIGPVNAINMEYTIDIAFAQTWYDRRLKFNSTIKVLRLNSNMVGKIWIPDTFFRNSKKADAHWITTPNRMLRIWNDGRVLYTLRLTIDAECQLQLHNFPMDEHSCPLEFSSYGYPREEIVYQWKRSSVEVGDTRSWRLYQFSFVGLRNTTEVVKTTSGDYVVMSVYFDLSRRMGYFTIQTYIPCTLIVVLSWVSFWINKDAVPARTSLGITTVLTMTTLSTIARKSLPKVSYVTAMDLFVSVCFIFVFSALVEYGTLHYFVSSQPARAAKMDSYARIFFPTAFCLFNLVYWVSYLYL
Kind of assay: Whole-cell patch-clamp electrophysiology, benzodiazepine-site double mutant. The format is cell-based. The conditions noted are these: 500 µM and 1000 µM methaqualone with GABA EC10, vs cryo-EM construct. The procedure: as §1, with “A gravity-driven RSC-200 rapid solution changer (Bio-Logic) was used for solution exchange.” left out
Statistical analysis in Fig. 3 and Fig. 4 was performed using GraphPad Prism 9.2.0 software (GraphPad Software, Inc., La Jolla, CA). Data are expressed as means ± standard deviation of at least three recordings from independent cells. […]

In assay [11] the test system is α1H102R α1β2γ2 GABAA receptor. The conditions noted are these: 300 µM methaqualone; cited from earlier work.
In assay [12] the test system is α6β2N265Sδ GABAA receptor. The conditions noted are these: β2N265S in α6β2δ, cited from earlier work.
Assay [13] relates to α1β2γ2 GABAA receptor. Set-up: method as in Zhu S et al., 2018. As to conditions: ref Zhu S et al., 2018, cited from earlier work.

“And” between values parts separate entries of the source, which are not always exact repeats. Equal entries are not always repeated. “Also recorded” adds a separate entry of the source. Where two headings read alike, the source gives them in different places.

In the case of `NCCCC(=O)O` [GABA, γ-aminobutyric acid], the “Effect of mutation on receptor sensitivity to GABA” value in [1] is recorded as “increases receptor sensitivity to GABA”.
`Cc1ccc(-n2c(-c3ccccc3)nc3ccccc3c2=O)cc1` [PPTQ, 2-phenyl-3-(p-tolyl)-quinazolin-4(3H)-one]: the “Effect of mutation on PAM activity” value is “significantly decreases its PAM efficacy; also recorded: decreased PAM activity” in assay [2]; “significantly decreases its PAM efficacy; also recorded: pronounced decrease in PAM activity” in assay [3]; “reduces the PAM activity of methaqualone and PAM and agonist activities of PPTQ significantly; also recorded: Elimination” in [4]; “negligible effects; also recorded: No significant difference” in assay [5]; “PAM efficacy plummets; also recorded: decreased PAM activity” in assay [1]. Further, the “Effect of mutation on direct activation (agonist activity)” value (“Effect of mutation on direct activation” below) in assay [2] was “completely abolishes PPTQ agonist activity; also recorded: Elimination of direct activation”; in [3], “completely abolishes PPTQ agonist activity; also recorded: Elimination of direct activation”; in assay [4], “reduces the PAM activity of methaqualone and PAM and agonist activities of PPTQ significantly; also recorded: Elimination”; in assay [5] it was “negligible effects; also recorded: No significant difference”; in assay [1], “dramatically more efficacious agonists; also recorded: Pronounced increase in direct activation”. Also, the “Higher modulatory potency (EC50 value) than methaqualone” value in the assay with α1β2γ2 GABAA receptor [6] (α1β2γ2 receptor subtype) is roughly 50 fold.
For `CN1C(=O)CN=C(c2ccccc2)c2cc(Cl)ccc21` [diazepam], the “Relative current, GABA EC10 + DZ 1uM” value in assay [7] (N265M, relative to GABA EC10, single recordings, listed as DZ) is 1.349 and 1.602 and 1.299 and 1.556.
As for `CCOC(=O)c1cncn1[C@H](C)c1ccccc1` [etomidate], the “Activity at receptors with serine at the β265 position” value in [8] is on record as “remain active”. The “Effect of mutation on PAM and agonist activities” value in the assay on βM286W GABAA receptor is “detrimental to the PAM and agonist activities”. Further, the “Effect of mutation on potentiation” value with β2/3N265M GABAA receptor was “almost entirely eliminates potentiation by etomidate”. In addition, the “Effect of mutation on PAM activity” value in assay [5] is listed as “increases etomidate modulatory efficacy”. Further, in [1], the “Effect of mutation on PAM activity” value is listed as “PAM efficacy plummets” and the “Effect of mutation on direct activation” value is “dramatically more efficacious agonists”.
For `Cc1ccccc1-n1c(C)nc2ccccc2c1=O` [methaqualone, Methaqualone], the “Effect of mutation on PAM activity” value in [9] was “from a NAM to a PAM”; in assay [9] (listed as Methaqualone) it was “Rescued PAM activity”; in [3], “more subtle decrease”; in [3] (listed as Methaqualone) it was “Decreased PAM activity”; in [4], “reduces the PAM activity of methaqualone and PAM and agonist activities of PPTQ significantly”; in assay [4] (listed as Methaqualone), “Almost eliminated PAM activity”. Further, the “Effect of mutation on PAM activity” value in assay [1] is “PAM efficacy plummets”; in assay [12] it was “from a PAM into a NAM”; in assay [12] (listed as Methaqualone), “Elimination of PAM activity”. In addition, the “Methaqualone-mediated modulation: effect of the two mutations” value in assay [10] is recorded as “affected neither”. In addition, in the assay on α1β2γ2 GABAA receptor [6] (300 µM methaqualone), the “Potentiation in the presence of saturating concentrations of flumazenil” value is “not significantly affected”. Also, the “Shape of PAM concentration-response curve” value with α1β2γ2 GABAA receptor [6] (decreasing degree of potentiation above 300 µM) is listed as “bell-shaped concentration-response curve”. Also, in the assay with α1β2γ2 GABAA receptor [6] (very high concentrations (200–1000 µM)), the Agonist activity entry is listed as “minute but significant agonist activity”. Also, the “Effect of β2N265M mutation on methaqualone potentiation” value in assay [7] (100 µM methaqualone with GABA EC10) is “most of the methaqualone activity was lost”. The “Effect on receptor activation by GABA” value in [7] (100 µM methaqualone, β2N265M) is “no measurable effect”. Further, the “Effect on potentiation by diazepam (competition assay)” value in assay [7] (β2N265M) is reported as “block much of the PAM activity of diazepam”; in assay [7] (β2N265M, listed as MQ), “inhibit diazepam potentiation”. Also, the “Effect of mutation on direct activation” value is listed as “dramatically more efficacious agonists” in assay [1] and “Pronounced increase in direct activation” in assay [1] (listed as Methaqualone). In addition, the “Effect of α1H102R mutation on potentiation” value in assay [11] is reported as “not significantly affected”.
On to `CC(C)c1cccc(C(C)C)c1O` [propofol], for which the “Activity at receptors with serine at the β265 position” value in assay [8] was “remain active”. In the assay with βM286W GABAA receptor, the “Effect of mutation on PAM and agonist activities” value was “detrimental to the PAM and agonist activities”. For the same compound, the “Effect of mutation on potentiation” value with β2/3N265M GABAA receptor is on record as “significantly reduces potentiation of propofol”.
With “Fab: Fab fragment of 1F4 monoclonal antibody against the α1 subunit, used for cryo-EM particle alignment”, in the assay on α1β2γ2 GABAA receptor [13], the “Effect on flumazenil's activity or binding affinity” value is “no significant effect”. The “Shift of the EC50 for GABA to the left” value in the assay with α1β2γ2 GABAA receptor [13] (weak positive allosteric modulator) is 2.5 fold.
